These compounds were tested against Mcl-1 protein (UniProtKB primary accession number: Q07820) (Homo sapiens, UniProt Q07820) (assay: Inhibition of Mcl-1 by fluorescence polarisation, Method 1). Conditions: fluorescence polarisation test; Method 1, or Method 2 where the value is underlined (underlining not visible); read-out: IC50 (M) Mcl-1 FP.
Assay type: binding
In short: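 FP competition, 11-point compound titration in 5% final DMSO; protein and labelled probe at 5 nM and 1 nM final in HEPES/NaCl/Tween 20 buffer, pH 7.4.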

Chain of Mcl-1 protein (Q07820 whole entry): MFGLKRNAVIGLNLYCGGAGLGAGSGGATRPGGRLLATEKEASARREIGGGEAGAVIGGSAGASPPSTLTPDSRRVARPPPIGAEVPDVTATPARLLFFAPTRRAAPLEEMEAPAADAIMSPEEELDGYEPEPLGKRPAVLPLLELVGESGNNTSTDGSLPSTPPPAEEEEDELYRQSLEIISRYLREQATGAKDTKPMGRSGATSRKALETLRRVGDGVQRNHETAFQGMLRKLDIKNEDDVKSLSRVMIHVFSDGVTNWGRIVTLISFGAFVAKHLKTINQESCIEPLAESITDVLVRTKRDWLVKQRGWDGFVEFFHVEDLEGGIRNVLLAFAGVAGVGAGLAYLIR

| SMILES | IC50 [M] |
| --- | --- |
| COc1ccccc1CC(Oc1ncnc2sc(-c3ccc(F)cc3)c(-c3ccc(OCCN4CCN(C)CC4)c(Cl)c3C)c12)C(=O)OCC(=O)N(C)C [Example 844, 2-(dimethylamino)-2-oxoethyl (2R)-2-{[(5Sa)-5-{3-chloro-2-methyl-4-[2-(4-methylpiperazin-1-yl)ethoxy]phenyl}-6-(4-fluorophenyl)thieno[2,3-d]pyrimidin-4-yl]oxy}-3-(2-methoxyphenyl)propanoate] | 1.67e-06 |
| Cc1c(-c2c(-c3ccc(F)cc3)sc3ncnc(OC(Cc4ccccc4OCc4ccnc(-c5ccccc5F)n4)C(=O)OCOC(=O)C(C)(C)C)c23)ccc(OCCN2CCN(C)CC2)c1Cl [Example 854, {[(2R)-2-{[(5Sa)-5-{3-chloro-2-methyl-4-[2-(4-methylpiperazin-1-yl)ethoxy]phenyl}-6-(4-fluorophenyl)thieno[2,3-d]pyrimidin-4-yl]oxy}-3-(2-{[2-(2-fluorophenyl)pyrimidin-4-yl]methoxy}phenyl)propanoyl]oxy}methyl 2,2-dimethylpropanoate] | 1.72e-07 |
| CCOC(=O)C(Cc1ccccc1OCc1ccnc(-c2ccccc2CO)n1)Oc1ncnc2sc(-c3ccc(F)cc3)c(-c3ccc(OCCN4CCN(C)CC4)c(Cl)c3C)c12 [Example 856, ethyl (2R)-2-{[(5Sa)-5-{3-chloro-2-methyl-4-[2-(4-methylpiperazin-1-yl)ethoxy]phenyl}-6-(4-fluorophenyl)thieno[2,3-d]pyrimidin-4-yl]oxy}-3-[2-({2-[2-(hydroxymethyl)phenyl]pyrimidin-4-yl}methoxy)phenyl]propanoate] | 9.79e-07 |
| COc1ccccc1-c1nccc(COc2ccccc2CC(Oc2ncnc3sc(-c4ccc(F)cc4)c(-c4ccc(OCCN5CCN(C)CC5)c(Cl)c4C)c23)C(=O)OC(C)OC(C)=O)n1 [Example 858, 1-(acetyloxy)ethyl (2R)-2-{[(5Sa)-5-{3-chloro-2-methyl-4-[2-(4-methylpiperazin-1-yl)ethoxy]phenyl}-6-(4-fluorophenyl)thieno[2,3-d]pyrimidin-4-yl]oxy}-3-(2-{[2-(2-methoxyphenyl)pyrimidin-4-yl]methoxy}phenyl)propanoate] | 2.11e-07 |
| COc1ccccc1-c1nccc(COc2ccccc2CC(Oc2ncnc3sc(-c4ccc(F)cc4)c(-c4ccc(OCCN5CCN(C)CC5)c(Cl)c4C)c23)C(=O)OC(C)OC(=O)C(C)(C)C)n1 [Example 859, 1-{[(2R)-2-{[(5Sa)-5-{3-chloro-2-methyl-4-[2-(4-methylpiperazin-1-yl)ethoxy]phenyl}-6-(4-fluorophenyl)thieno[2,3-d]pyrimidin-4-yl]oxy}-3-(2-{[2-(2-methoxyphenyl)pyrimidin-4-yl]methoxy}phenyl)propanoyl]oxy}ethyl 2,2-dimethylpropanoate] | 1.13e-06 |
| CCC(=O)OC(C)OC(=O)C(Cc1ccccc1OCc1ccnc(-c2ccccc2OC)n1)Oc1ncnc2sc(-c3ccc(F)cc3)c(-c3ccc(OCCN4CCN(C)CC4)c(Cl)c3C)c12 [Example 860, 1-(propanoyloxy)ethyl (2R)-2-{[(5Sa)-5-{3-chloro-2-methyl-4-[2-(4-methylpiperazin-1-yl)ethoxy]phenyl}-6-(4-fluorophenyl)thieno[2,3-d]pyrimidin-4-yl]oxy}-3-(2-{[2-(2-methoxyphenyl)pyrimidin-4-yl]methoxy}phenyl)propanoate] | 2.04e-07 |

Same assay, conditions: test compound at 10 uM; Method 1, or Method 2 where the value is underlined (underlining not visible)

| SMILES | percentage fluorescence polarisation inhibition (Mcl-1 FP), partial inhibitors [% @ 10 uM] |
| --- | --- |
| COc1ccccc1C[C@@H](Oc1ncnc2sc(-c3ccc(F)cc3)c(-c3ccc(OC)c(Cl)c3C)c12)C(=O)OCC(=O)N(C)C [Example 845, 2-(dimethylamino)-2-oxoethyl (2R)-2-{[(5Sa)-5-(3-chloro-4-methoxy-2-methylphenyl)-6-(4-fluorophenyl)thieno[2,3-d]pyrimidin-4-yl]oxy}-3-(2-methoxyphenyl)propanoate] | 7.85 |
| COc1ccccc1C[C@@H](Oc1ncnc2sc(-c3ccc(F)cc3)c(-c3ccc(OC)c(Cl)c3C)c12)C(=O)OCOC(=O)C(C)(C)C [Example 846, {[(2R)-2-{[(5Sa)-5-(3-chloro-4-methoxy-2-methylphenyl)-6-(4-fluorophenyl)thieno[2,3-d]pyrimidin-4-yl]oxy}-3-(2-methoxyphenyl)propanoyl]oxy}methyl 2,2-dimethylpropanoate] | 25.1 |
| CCCCCCCCOC(=O)[C@@H](Cc1ccccc1OCc1ccnc(-c2ccccc2OC)n1)Oc1ncnc2sc(-c3ccc(F)cc3)c(-c3ccc(OC)c(Cl)c3C)c12 [Example 847, octyl (2R)-2-{[(5Sa)-5-(3-chloro-4-methoxy-2-methylphenyl)-6-(4-fluorophenyl)thieno[2,3-d]pyrimidin-4-yl]oxy}-3-(2-{[2-(2-methoxyphenyl)pyrimidin-4-yl]methoxy}phenyl)propanoate] | 3.55 |
| COc1ccccc1-c1nccc(COc2ccccc2C[C@@H](Oc2ncnc3sc(-c4ccc(F)cc4)c(-c4ccc(OC)c(Cl)c4C)c23)C(=O)OCC(=O)N(C)C)n1 [Example 848, 2-(dimethylamino)-2-oxoethyl (2R)-2-{[(5Sa)-5-(3-chloro-4-methoxy-2-methylphenyl)-6-(4-fluorophenyl)thieno[2,3-d]pyrimidin-4-yl]oxy}-3-(2-{[2-(2-methoxyphenyl)pyrimidin-4-yl]methoxy}phenyl)propanoate] | 46.7 |
| COc1ccccc1-c1nccc(COc2ccccc2C[C@@H](Oc2ncnc3sc(-c4ccc(F)cc4)c(-c4ccc(OC)c(Cl)c4C)c23)C(=O)OCOC(=O)C(C)(C)C)n1 [Example 849, {[(2R)-2-{[(5Sa)-5-(3-chloro-4-methoxy-2-methylphenyl)-6-(4-fluorophenyl)thieno[2,3-d]pyrimidin-4-yl]oxy}-3-(2-{[2-(2-methoxyphenyl)pyrimidin-4-yl]methoxy}phenyl)propanoyl]oxy}methyl 2,2-dimethylpropanoate] | 61.35 |
| CCCCCCCCOC(=O)[C@@H](Cc1ccccc1OC)Oc1ncnc2sc(-c3ccc(F)cc3)c(-c3ccc(OCCN4CCN(C)CC4)c(Cl)c3C)c12 [Example 850, octyl (2R)-2-{[(5Sa)-5-{3-chloro-2-methyl-4-[2-(4-methylpiperazin-1-yl)ethoxy]phenyl}-6-(4-fluorophenyl)thieno[2,3-d]pyrimidin-4-yl]oxy}-3-(2-methoxyphenyl)propanoate] | 29.4 |
| CCCCCCCCOC(=O)[C@@H](Cc1ccccc1OC)Oc1ncnc2sc(-c3ccc(F)cc3)c(-c3ccc(OC)c(Cl)c3C)c12 [Example 851, octyl (2R)-2-{[(5Sa)-5-(3-chloro-4-methoxy-2-methylphenyl)-6-(4-fluorophenyl)thieno[2,3-d]pyrimidin-4-yl]oxy}-3-(2-methoxyphenyl)propanoate] | 7.85 |
| CCOC(=O)[C@@H](Cc1ccccc1OCc1ccnc(-c2ccccc2CO)n1)Oc1ncnc2sc(-c3ccc(F)cc3)c(-c3ccc(OCCN(C)C)c(Cl)c3C)c12 [Example 857, ethyl (2R)-2-{[(5Sa)-5-{3-chloro-4-[2-(dimethylamino)ethoxy]-2-methylphenyl}-6-(4-fluorophenyl)thieno[2,3-d]pyrimidin-4-yl]oxy}-3-[2-({2-[2-(hydroxymethyl)phenyl]pyrimidin-4-yl}methoxy)phenyl]propanoate] | 77.85 |
